Results from patent EP4635500A1, “THERAPEUTIC AGENT FOR BACTERIAL INFECTION” (Sumitomo Pharma Co., Ltd., priority 2022, dated 2024).
≈ marks a conversion by molar mass, not a printed value. Like-named read-outs stand apart in the source and are kept apart here.

Assays:
Enterobacterales = test: MIC, broth microdilution, CDC/FDA Antibiotic Resistance Isolate Bank (Example 7, Tables 8, 11, 12); assay type: cell-based; conditions: for MIC: read-out: MIC; for MIC90: read-out: MIC90
A. baumannii = test: MIC, broth microdilution, CDC/FDA Antibiotic Resistance Isolate Bank (Example 7, Tables 9, 13, 14); assay type: cell-based, Acinetobacter baumannii; conditions: for MIC: read-out: MIC

## CO/N=C(\C(=O)N[C@@H]1C(=O)N2C(C(=O)[O-])=C(C[n+]3ccn4ncccc43)CS[C@H]12)c1nsc(N)n1 [Cefozopran, cefozopran]
Enterobacterales; Klebsiella pneumoniae, KUB No. 5636, AR Bank # 139
  MIC: 64 µg/mL (≈ 124 µM)
Enterobacterales; Klebsiella pneumoniae, KUB No. 5637, AR Bank # 140
  MIC: > 64 µg/mL
Enterobacterales; Klebsiella pneumoniae, KUB No. 5638, AR Bank # 141
  MIC: > 64 µg/mL
Enterobacterales; Klebsiella pneumoniae, KUB No. 5639, AR Bank # 142
  MIC: > 64 µg/mL
Enterobacterales; Klebsiella pneumoniae, KUB No. 5640, AR Bank # 143
  MIC: > 64 µg/mL
Enterobacterales; Klebsiella pneumoniae, KUB No. 5642, AR Bank # 145
  MIC: 64 µg/mL (≈ 124 µM)
Enterobacterales; Klebsiella pneumoniae, KUB No. 5643, AR Bank # 146
  MIC: > 64 µg/mL
Enterobacterales; Klebsiella pneumoniae, KUB No. 5645, AR Bank # 148
  MIC: 64 µg/mL (≈ 124 µM)
Enterobacterales; Klebsiella pneumoniae, KUB No. 5649, AR Bank # 152
  MIC: > 64 µg/mL
Enterobacterales; Klebsiella pneumoniae, KUB No. 5650, AR Bank # 153
  MIC: > 64 µg/mL
Enterobacterales; Klebsiella pneumoniae, KUB No. 5655, AR Bank # 158
  MIC: > 64 µg/mL
Enterobacterales; Klebsiella pneumoniae, KUB No. 5657, AR Bank # 160
  MIC: 2 µg/mL (≈ 3.88 µM)
Enterobacterales; Klebsiella pneumoniae, KUB No. 5757, AR Bank # 361
  MIC: 16 µg/mL (≈ 31 µM)
Enterobacterales; Klebsiella pneumoniae, KUB No. 5759, AR Bank # 363
  MIC: 16 µg/mL (≈ 31 µM)
Enterobacterales; Klebsiella pneumoniae, KUB No. 5760, AR Bank # 364
  MIC: 4 µg/mL (≈ 7.76 µM)
Enterobacterales; Klebsiella pneumoniae, KUB No. 5772, AR Bank # 376
  MIC: > 64 µg/mL
Enterobacterales; Klebsiella pneumoniae, Klebsiella pneumoniae KUB No. 5784, AR Bank #438
  MIC: > 64 µg/mL
Enterobacterales; Klebsiella pneumoniae, Klebsiella pneumoniae KUB No. 5797, AR Bank #453
  MIC: > 64 µg/mL
Enterobacterales; Klebsiella pneumoniae, Klebsiella pneumoniae KUB No. 5809, AR Bank #504
  MIC: > 64 µg/mL
Enterobacterales; Klebsiella pneumoniae, Klebsiella pneumoniae KUB No. 5810, AR Bank #505
  MIC: > 64 µg/mL
Enterobacterales; Klebsiella pneumoniae, Klebsiella pneumoniae KUB No. 5811, AR Bank #506
  MIC: > 64 µg/mL
Enterobacterales; Klebsiella pneumoniae, Klebsiella pneumoniae KUB No. 5812, AR Bank #507
  MIC: > 64 µg/mL
Enterobacterales; Klebsiella pneumoniae, Klebsiella pneumoniae KUB No. 5827, AR Bank #522
  MIC: > 64 µg/mL
Enterobacterales; Klebsiella pneumoniae, Klebsiella pneumoniae KUB No. 5828, AR Bank #523
  MIC: 32 µg/mL (≈ 62.1 µM)
Enterobacterales; Klebsiella pneumoniae, Klebsiella pneumoniae KUB No. 5829, AR Bank #524
  MIC: 32 µg/mL (≈ 62.1 µM)
Enterobacterales; Klebsiella pneumoniae, Klebsiella pneumoniae KUB No. 5830, AR Bank #525
  MIC: 32 µg/mL (≈ 62.1 µM)
Enterobacterales; Kluyvera ascorbata, KUB No. 5641, AR Bank # 144
  MIC: 16 µg/mL (≈ 31 µM)
Enterobacterales; Morganella morganii, KUB No. 5554, AR Bank# 57
  MIC: > 64 µg/mL
Enterobacterales; Morganella morganii, KUB No. 5630, AR Bank # 133
  MIC: 64 µg/mL (≈ 124 µM)
Enterobacterales; Proteus mirabilis, KUB No. 5556, AR Bank# 59
  MIC: 2 µg/mL (≈ 3.88 µM)
Enterobacterales; Proteus mirabilis, KUB No. 5652, AR Bank # 155
  MIC: 64 µg/mL (≈ 124 µM)
Enterobacterales; Proteus mirabilis, KUB No. 5653, AR Bank # 156
  MIC: 0.5 µg/mL (≈ 0.97 µM)
Enterobacterales; Proteus mirabilis, KUB No. 5656, AR Bank # 159
  MIC: > 64 µg/mL
Enterobacterales; Proteus mirabilis, KUB No. 5773, AR Bank # 377
  MIC: 16 µg/mL (≈ 31 µM)
Enterobacterales; Proteus mirabilis, KUB No. 5775, AR Bank # 379
  MIC: 4 µg/mL (≈ 7.76 µM)
Enterobacterales; Providencia rettgeri, KUB No. 5579, AR Bank # 82
  MIC: 16 µg/mL (≈ 31 µM)
Enterobacterales; Raoultella ornithinolvtica, KUB No. 5631, AR Bank # 134
  MIC: 8 µg/mL (≈ 15.5 µM)
Enterobacterales; Salmonella enterica, Salmonella Senftenberg, KUB No. 5624, AR Bank # 127
  MIC: > 64 µg/mL
Enterobacterales; Serratia marcescens, KUB No. 5588, AR Bank # 91
  MIC: 0.12 µg/mL (≈ 0.233 µM)
Enterobacterales; Serratia marcescens, KUB No. 5596, AR Bank # 99
  MIC: 0.25 µg/mL (≈ 0.485 µM)
Enterobacterales; Serratia marcescens, KUB No. 5618, AR Bank # 121
  MIC: 0.12 µg/mL (≈ 0.233 µM)
Enterobacterales; Serratia marcescens, KUB No. 5619, AR Bank # 122
  MIC: 0.12 µg/mL (≈ 0.233 µM)
Enterobacterales; Serratia marcescens, KUB No. 5620, AR Bank # 123
  MIC: 0.12 µg/mL (≈ 0.233 µM)
Enterobacterales; Serratia marcescens, KUB No. 5621, AR Bank # 124
  MIC: 0.12 µg/mL (≈ 0.233 µM)
Enterobacterales; Serratia marcescens, KUB No. 5627, AR Bank # 130
  MIC: 0.12 µg/mL (≈ 0.233 µM)
Enterobacterales; Serratia marcescens, KUB No. 5628, AR Bank # 131
  MIC: 0.12 µg/mL (≈ 0.233 µM)
Enterobacterales; Serratia marcescens, Serratia marcescens KUB No. 5822, AR Bank #517
  MIC: > 64 µg/mL
Enterobacterales; Serratia marcescens, Serratia marcescens KUB No. 5825, AR Bank #520
  MIC: 0.25 µg/mL (≈ 0.485 µM)
Enterobacterales; Serratia marcescens, Serratia marcescens KUB No. 5826, AR Bank #521
  MIC: 8 µg/mL (≈ 15.5 µM)
Enterobacterales; carbapenemase-producing Enterobacterales, Metallo-β-lactamase (N = 47), read-out: MIC50
  MIC50: > 64 µg/mL
Enterobacterales; carbapenemase-producing Enterobacterales, Metallo-β-lactamase (N = 47)
  MIC90: > 64 µg/mL
Enterobacterales; carbapenemase-producing Enterobacterales, Serine carbapenemase (N=61)
  MIC90: > 64 µg/mL
A. baumannii; Acinetobacter baumannii, A. baumannii KUB No. 5567, AR Bank #70, OXA-58, OXA-100
  MIC: 2 µg/mL (≈ 3.88 µM)
A. baumannii; Acinetobacter baumannii, A. baumannii KUB No. 5575, AR Bank #78, OXA-71
  MIC: > 64 µg/mL
A. baumannii; Acinetobacter baumannii, A. baumannii KUB No. 5580, AR Bank #83, OXA-23, OXA-69, NDM-1
  MIC: > 64 µg/mL
A. baumannii; Acinetobacter baumannii, A. baumannii KUB No. 5585, AR Bank #88, OXA-64, NDM-1
  MIC: > 64 µg/mL
A. baumannii; Acinetobacter baumannii, A. baumannii KUB No. 5598, AR Bank #101, OXA-24, OXA-65
  MIC: 32 µg/mL (≈ 62.1 µM)
A. baumannii; Acinetobacter baumannii, A. baumannii KUB No. 5599, AR Bank #102, OXA-66
  MIC: 8 µg/mL (≈ 15.5 µM)
A. baumannii; Acinetobacter baumannii, A. baumannii KUB No. 5706, AR Bank #273, OXA-23, OXA-66
  MIC: 64 µg/mL (≈ 124 µM)
A. baumannii; Acinetobacter baumannii, A. baumannii KUB No. 5707, AR Bank #274, OXA-66, OXA-72
  MIC: 16 µg/mL (≈ 31 µM)
A. baumannii; Acinetobacter baumannii, A. baumannii KUB No. 5708, AR Bank #275, OXA-23, OXA-66
  MIC: 64 µg/mL (≈ 124 µM)
A. baumannii; Acinetobacter baumannii, A. baumannii KUB No. 5709, AR Bank #276, no carbapenemase genes (-)
  MIC: > 64 µg/mL
A. baumannii; Acinetobacter baumannii, A. baumannii KUB No. 5710, AR Bank #277, OXA-24, OXA-65
  MIC: 64 µg/mL (≈ 124 µM)
A. baumannii; Acinetobacter baumannii, A. baumannii KUB No. 5711, AR Bank #278, OXA-23, OXA-66
  MIC: 64 µg/mL (≈ 124 µM)
A. baumannii; Acinetobacter baumannii, A. baumannii KUB No. 5712, AR Bank #279, OXA-23, OXA-66
  MIC: 64 µg/mL (≈ 124 µM)
A. baumannii; Acinetobacter baumannii, A. baumannii KUB No. 5713, AR Bank #280, OXA-66
  MIC: 8 µg/mL (≈ 15.5 µM)
A. baumannii; Acinetobacter baumannii, A. baumannii KUB No. 5714, AR Bank #281, OXA-82
  MIC: 8 µg/mL (≈ 15.5 µM)
A. baumannii; Acinetobacter baumannii, A. baumannii KUB No. 5715, AR Bank #282, OXA-23, OXA-66
  MIC: 64 µg/mL (≈ 124 µM)
A. baumannii; Acinetobacter baumannii, A. baumannii KUB No. 5716, AR Bank #283, OXA-23, OXA-66
  MIC: 32 µg/mL (≈ 62.1 µM)
A. baumannii; Acinetobacter baumannii, A. baumannii KUB No. 5717, AR Bank #284, OXA-24, OXA-65
  MIC: 16 µg/mL (≈ 31 µM)
A. baumannii; Acinetobacter baumannii, A. baumannii KUB No. 5718, AR Bank #285, OXA-24, OXA-65
  MIC: 32 µg/mL (≈ 62.1 µM)
A. baumannii; Acinetobacter baumannii, KUB No. 5719, AR Bank #286
  MIC: 32 µg/mL (≈ 62.1 µM)
A. baumannii; Acinetobacter baumannii, KUB No. 5720, AR Bank #287
  MIC: 32 µg/mL (≈ 62.1 µM)
A. baumannii; Acinetobacter baumannii, KUB No. 5721, AR Bank #288
  MIC: 64 µg/mL (≈ 124 µM)
A. baumannii; Acinetobacter baumannii, KUB No. 5722, AR Bank #259
  MIC: 8 µg/mL (≈ 15.5 µM)
A. baumannii; Acinetobacter baumannii, KUB No. 5723, AR Bank #290
  MIC: > 64 µg/mL
A. baumannii; Acinetobacter baumannii, KUB No. 5724, AR Bank #291
  MIC: 32 µg/mL (≈ 62.1 µM)
A. baumannii; Acinetobacter baumannii, KUB No. 5725, AR Bank #292
  MIC: 16 µg/mL (≈ 31 µM)
A. baumannii; Acinetobacter baumannii, KUB No. 5726, AR Bank #293
  MIC: 16 µg/mL (≈ 31 µM)
A. baumannii; Acinetobacter baumannii, KUB No. 5727, AR Bank #294
  MIC: > 64 µg/mL
A. baumannii; Acinetobacter baumannii, KUB No. 5728, AR Bank #295
  MIC: 64 µg/mL (≈ 124 µM)
A. baumannii; Acinetobacter baumannii, KUB No. 5729, AR Bank #296
  MIC: > 64 µg/mL
A. baumannii; Acinetobacter baumannii, KUB No. 5730, AR Bank #297
  MIC: 64 µg/mL (≈ 124 µM)
A. baumannii; Acinetobacter baumannii, KUB No. 5731, AR Bank #298
  MIC: 16 µg/mL (≈ 31 µM)
A. baumannii; Acinetobacter baumannii, KUB No. 5732, AR Bank #299
  MIC: > 64 µg/mL
A. baumannii; Acinetobacter baumannii, KUB No. 5733, AR Bank #300
  MIC: 8 µg/mL (≈ 15.5 µM)
A. baumannii; Acinetobacter baumannii, KUB No. 5734, AR Bank #301
  MIC: > 64 µg/mL
A. baumannii; Acinetobacter baumannii, KUB No. 5735, AR Bank #302
  MIC: > 64 µg/mL
A. baumannii; Acinetobacter baumannii, KUB No. 5736, AR Bank #303
  MIC: 32 µg/mL (≈ 62.1 µM)
A. baumannii; Acinetobacter baumannii, KUB No. 5737, AR Bank #304
  MIC: 8 µg/mL (≈ 15.5 µM)
A. baumannii; Acinetobacter baumannii, KUB No. 5738, AR Bank #305
  MIC: 16 µg/mL (≈ 31 µM)
A. baumannii; Acinetobacter baumannii, KUB No. 5739, AR Bank #306
  MIC: 64 µg/mL (≈ 124 µM)
A. baumannii; Acinetobacter baumannii, KUB No. 5740, AR Bank #307
  MIC: 16 µg/mL (≈ 31 µM)
A. baumannii; Acinetobacter baumannii, KUB No. 5741, AR Bank #308
  MIC: 4 µg/mL (≈ 7.76 µM)
A. baumannii; Acinetobacter baumannii, KUB No. 5742, AR Bank #309
  MIC: 64 µg/mL (≈ 124 µM)
A. baumannii; Acinetobacter baumannii, KUB No. 5743, AR Bank #310
  MIC: 64 µg/mL (≈ 124 µM)
A. baumannii; Acinetobacter baumannii, KUB No. 5744, AR Bank #311
  MIC: > 64 µg/mL
A. baumannii; Acinetobacter baumannii, KUB No. 5745, AR Bank #312
  MIC: 16 µg/mL (≈ 31 µM)
A. baumannii; Acinetobacter baumannii, KUB No. 5746, AR Bank #313
  MIC: 64 µg/mL (≈ 124 µM)
A. baumannii; Acinetobacter baumannii, 55 isolates of A. baumannii, read-out: MIC50
  MIC50: 64 µg/mL (≈ 124 µM)
A. baumannii; Acinetobacter baumannii, 55 isolates of A. baumannii, read-out: MIC80
  MIC80: > 64 µg/mL
A. baumannii; Acinetobacter baumannii, 55 isolates of A. baumannii, read-out: MIC90
  MIC90: > 64 µg/mL
A. baumannii; MIC distribution, metallo-β-lactamase-producing A. baumannii, inhibitor µg/mL in parentheses
  Number of isolates at MIC >64 µg/mL: 4
